This note sets out measurements from patent US8765944B2, “Compounds for the treatment of hepatitis C” (priority 2010, dated 2014).

pEC50: −log10 of the molar value.

For the experiment, the system named is HCV pseudoparticles. The experiment is described as follows: HCV pseudoparticle infection assay (luciferase reporter, Huh7 cells). The class given is cell-based, HCV (genotype 1b E1 and E2 envelope). As to conditions: Hepatitis C virus, genotype 1b, Huh-7, 48 h, HCV pseudoparticles (genotype 1b), luciferase activity 2 days after infection.

As to `O=C(NS(=O)(=O)CCN1CCCC1)c1ccc(Nc2nc(NC3(c4ccc(Cl)cc4)CC3)nc(OCC(F)(F)F)n2)cc1` [Example 1029, 4-(4-(1-(4-chlorophenyl)cyclopropylamino)-6-(2,2,2-trifluoroethoxy)-1,3,5-triazin-2-ylamino)-N-(2-(pyrrolidin-1-yl)ethylsulfonyl)benzamide], under “class”, the pEC50 (commonly the negative decadic logarithm of the EC50, by convention in mol/L) was 7.00 to 9.30.

Take `CS(=O)(=O)NC(=O)[C@@]1(NC(=O)CCCNC(=O)c2ccc(Nc3nc(NC4(c5ccc(Cl)cc5)CC4)nc(OCC(F)(F)F)n3)cc2)C[C@H]1C1CC1` [Example 2039, 4-(4-(1-(4-chlorophenyl)cyclopropylamino)-6-(2,2,2-trifluoroethoxy)-1,3,5-triazin-2-ylamino)-N-(4-((1S,2R)-2-(methylsulfonylcarbamoyl)bi(cyclopropan)-2-ylamino)-4-oxobutyl)benzamide]: for the setting “class”, the negative logarithm of the EC50 (pEC50) is 7.00 to 9.30.

Turning to `CC(C)S(=O)(=O)NC(=O)[C@@]1(NC(=O)CCCNC(=O)c2ccc(Nc3nc(NC4(c5ccc(Cl)cc5)CC4)nc(OCC(F)(F)F)n3)cc2)C[C@H]1C1CC1(F)F` (stereo partly drawn) [Example 2048], the pEC50 (class) was 7.00 to 9.30.

Regarding `CCCC1(S(=O)(=O)NC(=O)c2ccc(Nc3nc(NC4(c5ccc(Cl)cc5)CC4)nc(OCC(F)(F)F)n3)cc2)CC1` [Example 1007], where the note is “class”, the negative-log EC50 (pEC50) is 7.00 to 9.30.

`COCCS(=O)(=O)NC(=O)C(C)(C)CNC(=O)c1ccc(Nc2nc(NC3(c4ccc(Cl)cc4)CC3)nc(OCC(F)(F)F)n2)cc1` [Example 2094] had a pEC50 (class) of 7.00 to 9.30.

Consider `CC(C)S(=O)(=O)NC(=O)[C@H](C)NC(=O)CCCNC(=O)c1ccc(Nc2nc(NC3(c4ccc(Cl)cc4)CC3)nc(OCC(F)(F)F)n2)cc1` [Example 2055], for which the pEC50 (class) is 7.00 to 9.30.

Take `O=C(NS(=O)(=O)c1ccc(Nc2nc(NC3(c4ccc(Cl)cc4)CC3)nc(OCC(F)(F)F)n2)cc1)C1(CN2CCCC2)CC1` [Example 3001]: the pEC50 (class) was 5.30 to 6.00.

For `CN(C)CC1(S(=O)(=O)NC(=O)c2ccc(Nc3nc(OCC(F)(F)F)nc(N4CCN(S(=O)(=O)c5ccccc5F)CC4)n3)cc2)CC1` [Example 8030], the pEC50 (class) was 5.30 to 6.00.

In turn, `O=C(NS(=O)(=O)CCCN1CCCC1)c1ccc(Nc2nc(NC3(c4ccc(Cl)cc4)CC3)nc(N3CCCC3)n2)cc1` [Example 8003] gave a pEC50 (class) of 5.30 to 6.00.

The compound `COc1ccc(C(=O)N2CCN(c3nc(Nc4ccc(C(=O)NS(=O)(=O)C5(CN(C)C)CC5)cc4)nc(OCC(F)(F)F)n3)CC2)cc1` [Example 8041] gave a pEC50 (class) of 5.30 to 6.00.

The compound `CC(C)S(=O)(=O)NC(=O)[C@@]1(NC(=O)CCCNC(=O)c2ccc(Nc3nc(NC4(c5ccc(Cl)cc5)CC4)nc(OCC(F)(F)F)n3)cc2)C[C@H]1C1CC1` [Example 2041] showed a pEC50 (class) of 7.00 to 9.30.

Regarding `O=C(NCCS(=O)(=O)NC(=O)c1ccc(Nc2nc(NC3(c4ccc(Cl)cc4)CC3)nc(OCC(F)(F)F)n2)cc1)c1cccnc1` [Example 1043], the pEC50 (class) is 7.00 to 9.30.

Consider `CC(C)(CNC(=O)c1ccc(Nc2nc(NC3(c4ccc(Cl)cc4)CC3)nc(OCC(F)(F)F)n2)cc1)C(=O)NC1(C(=O)NS(=O)(=O)C2CC2)CC1` [Example 2095], for which the negative-log EC50 (pEC50) (class) was 7.00 to 9.30.

Take `CC(C)(C)S(=O)(=O)NC(=O)C1(CNC(=O)c2ccc(Nc3nc(NC4(c5ccc(Cl)cc5)CC4)nc(OCC(F)(F)F)n3)cc2)CC1` [Example 2075]: the negative logarithm of the EC50 (pEC50) (class) is 7.00 to 9.30.

As for `CN(C)S(=O)(=O)NC(=O)C1(CNC(=O)c2ccc(Nc3nc(NC4(c5ccc(Cl)cc5)CC4)nc(OCC(F)(F)F)n3)cc2)CC1` [Example 2078], the pEC50 (class) is 7.00 to 9.30.

Consider `O=C(NS(=O)(=O)C1(Cc2ccccc2F)CC1)c1ccc(Nc2nc(NC3(c4ccc(Cl)cc4)CC3)nc(OCC(F)(F)F)n2)cc1` [Example 8016], for which the pEC50 (class) is 7.00 to 9.30.

On to `O=C(NS(=O)(=O)C1(C(=O)Nc2ccccc2)CC1)c1ccc(Nc2nc(NC3(c4ccc(Cl)cc4)CC3)nc(OCC(F)(F)F)n2)cc1` [Example 8015], for which the pEC50 (class) is 7.00 to 9.30.

With `CS(=O)(=O)NC(=O)CCNC(=O)c1ccc(Nc2nc(NC3(c4ccc(Cl)cc4)CC3)nc(OCC(F)(F)F)n2)cc1` [Example 2018], the pEC50 (class) was 7.00 to 9.30.

`CC(C)(C)CNCCS(=O)(=O)NC(=O)c1ccc(Nc2nc(NC3(c4ccc(Cl)cc4)CC3)nc(OCC(F)(F)F)n2)cc1` [Example 1033] showed a pEC50 (class) of 7.00 to 9.30.

Compound `CC(C)NC(=O)OCC1(S(=O)(=O)NC(=O)c2ccc(Nc3nc(NC4(c5ccc(Cl)cc5)CC4)nc(OCC(F)(F)F)n3)cc2)CC1` [Example 1027] gave a negative logarithm of the EC50 (pEC50) (class) of 7.00 to 9.30.

`CCS(=O)(=O)N1CCN(c2nc(Nc3ccc(C(=O)NS(=O)(=O)C4(CN(C)C)CC4)cc3)nc(OCC(F)(F)F)n2)CC1` [Example 8023] showed a pEC50 (class) of 5.30 to 6.00.

`CN(C)CC1(C(=O)NS(=O)(=O)c2ccc(Nc3nc(NC4(c5ccc(Cl)cc5)CC4)nc(OCC(F)(F)F)n3)cc2)CC1` [Example 3006] gave a pEC50 of 5.57. The negative-log EC50 (pEC50) (class) is 5.30 to 6.00.

In turn, `CN(C)S(=O)(=O)NC(=O)c1ccc(Nc2nc(NC3(c4ccc(Cl)cc4)CC3)nc(OCC(F)(F)F)n2)cc1` [Example 1006] had a pEC50 of 7.41. The compound further had a pEC50 (class) of 7.00 to 9.30.

For `CC(C)(C)COC(=O)NCCS(=O)(=O)NC(=O)c1ccc(Nc2nc(NC3(c4ccc(Cl)cc4)CC3)nc(OCC(F)(F)F)n2)cc1` [Example 1046], the pEC50 (class) was 7.00 to 9.30.

For `O=C(CCCNC(=O)c1ccc(Nc2nc(NC3(c4ccc(Cl)cc4)CC3)nc(OCC(F)(F)F)n2)cc1)NCCC(=O)NS(=O)(=O)C1CC1` [Example 2062], the negative logarithm of the EC50 (pEC50) (class) was 7.00 to 9.30.

On to `CN(C)CC1(S(=O)(=O)NC(=O)c2ccc(Nc3nc(OCC(F)(F)F)nc(N4CCN(S(=O)(=O)c5cccc(F)c5)CC4)n3)cc2)CC1` [Example 8036], for which, for the setting “class”, the pEC50 was 5.30 to 6.00.

As to `C=C[C@@H]1C[C@]1(NC(=O)CCCNC(=O)c1ccc(Nc2nc(NC3(c4ccc(Cl)cc4)CC3)nc(OCC(F)(F)F)n2)cc1)C(=O)NS(=O)(=O)C1CC1` [Example 2032], the pEC50 was 8.89. In addition, under “class”, the pEC50 was 7.00 to 9.30.

Where the note is “class”, `O=C(NS(=O)(=O)CCN1CCOCC1)c1ccc(Nc2nc(NC3(c4ccc(Cl)cc4)CC3)nc(OCC(F)(F)F)n2)cc1` [Example 1030] had a pEC50 of 7.00 to 9.30.

`CCC1(S(=O)(=O)NC(=O)C(C)(C)CNC(=O)c2ccc(Nc3nc(NC4(c5ccc(Cl)cc5)CC4)nc(OCC(F)(F)F)n3)cc2)CC1` [Example 2091] had a pEC50 (class) of 7.00 to 9.30.

As for `CC(C)(C)OC(=O)N1CCC[C@H]1C(=O)NCCS(=O)(=O)NC(=O)c1ccc(Nc2nc(NC3(c4ccc(Cl)cc4)CC3)nc(OCC(F)(F)F)n2)cc1` [Example 1041], where the note is “class”, the pEC50 is 7.00 to 9.30.

`C=C[C@@H]1C[C@]1(NC(=O)CCCNC(=O)c1ccc(Nc2nc(NC3(c4ccc(Cl)cc4)CC3)nc(OCC(F)(F)F)n2)cc1)C(=O)NS(=O)(=O)C(C)(C)C` [Example 2035] gave a pEC50 (class) of 7.00 to 9.30.

Where the note is “class”, `O=C(CCN1CCS(=O)(=O)CC1)NCC1(C(=O)NS(=O)(=O)c2ccc(Nc3nc(NC4(c5ccc(Cl)cc5)CC4)nc(OCC(F)(F)F)n3)cc2)CC1` [Example 3009] gave a pEC50 of 5.30 to 6.00.

The compound `CCC(=O)NS(=O)(=O)c1ccc(Nc2nc(NC3(c4ccc(Cl)cc4)CC3)nc(OCC(F)(F)F)n2)cc1` [Example 8004] gave a pEC50 of 5.53. The same compound had a pEC50 (class) of 5.30 to 6.00.

For the setting “class”, `CC(C)(C)OC(=O)NC[C@H](NC(=O)c1ccc(Nc2nc(NC3(c4ccc(Cl)cc4)CC3)nc(OCC(F)(F)F)n2)cc1)C(=O)NS(=O)(=O)C1CC1` [Example 2096] showed a pEC50 of 7.00 to 9.30.

Under “class”, `CCS(=O)(=O)NC(=O)CCCCNC(=O)c1ccc(Nc2nc(NC3(c4ccc(Cl)cc4)CC3)nc(OCC(F)(F)F)n2)cc1` [Example 2014] gave a negative logarithm of the EC50 (pEC50) of 7.00 to 9.30.

Take `CNC(=O)NCCS(=O)(=O)NC(=O)c1ccc(Nc2nc(NC3(c4ccc(Cl)cc4)CC3)nc(OCC(F)(F)F)n2)cc1` [Example 1047]: the pEC50 (class) was 7.00 to 9.30.

In the case of `CC(C)(CNC(=O)c1ccc(Nc2nc(NC3(c4ccc(Cl)cc4)CC3)nc(OCC(F)(F)F)n2)cc1)C(=O)NS(C)(=O)=O` [Example 2085], the pEC50 (class) was 7.00 to 9.30.

Under “class”, `COCC1(S(=O)(=O)NC(=O)c2ccc(Nc3nc(NC4(c5ccc(Cl)cc5)CC4)nc(OCC(F)(F)F)n3)cc2)CC1` [Example 1010] gave a pEC50 of 7.00 to 9.30.

Regarding `O=C(CCCNC(=O)c1ccc(Nc2nc(NC3(c4ccc(Cl)cc4)CC3)nc(OCC(F)(F)F)n2)cc1)N[C@]1(C(=O)NS(=O)(=O)C2CC2)C[C@H]1C1CC1` [Example 2036], the pEC50 (class) was 7.00 to 9.30.

In turn, `O=C(NS(=O)(=O)C1(CN2CCOCC2)CC1)c1ccc(Nc2nc(NC3(c4ccc(Cl)cc4)CC3)nc(OCC(F)(F)F)n2)cc1` [Example 1015] gave a pEC50 (class) of 7.00 to 9.30.

`CC(C)S(=O)(=O)NC(=O)C1(CNC(=O)c2ccc(Nc3nc(NC4(c5ccc(Cl)cc5)CC4)nc(OCC(F)(F)F)n3)cc2)CC1` [Example 2074]: for the setting “class”, the negative-log EC50 (pEC50) is 7.00 to 9.30.

`CS(=O)(=O)NC(=O)CCCNC(=O)c1ccc(Nc2nc(NC3(c4ccc(Cl)cc4)CC3)nc(OCC(F)(F)F)n2)cc1` [Example 2019]: under “class”, the pEC50 was 7.00 to 9.30.

For `C[C@H](NC(=O)CCCNC(=O)c1ccc(Nc2nc(NC3(c4ccc(Cl)cc4)CC3)nc(OCC(F)(F)F)n2)cc1)C(=O)NS(=O)(=O)N(C)C` [Example 2056], where the note is “class”, the pEC50 was 7.00 to 9.30.

As to `CN(C)CC1(S(=O)(=O)NC(=O)c2ccc(Nc3nc(OCC(F)(F)F)nc(N4CCN(S(=O)(=O)c5ccccc5Cl)CC4)n3)cc2)CC1` [Example 8033], the pEC50 is 4.44. This compound showed a pEC50 (class) of 5.30 to 6.00.

`NC(=O)C1C[C@@H]2C[C@@H]2N1CC1(S(=O)(=O)NC(=O)c2ccc(Nc3nc(NC4(c5ccc(Cl)cc5)CC4)nc(OCC(F)(F)F)n3)cc2)CC1` (stereo partly drawn) [Example 1017] had a pEC50 (class) of 7.00 to 9.30.

With `CC1(C)CCN(CC2(S(=O)(=O)NC(=O)c3ccc(Nc4nc(NC5(c6ccc(Cl)cc6)CC5)nc(OCC(F)(F)F)n4)cc3)CC2)C1` [Example 1023], the pEC50 (class) is 7.00 to 9.30.

In turn, `CC(C)(C)S(=O)(=O)NC(=O)[C@@]1(NC(=O)CCCNC(=O)c2ccc(Nc3nc(NC4(c5ccc(Cl)cc5)CC4)nc(OCC(F)(F)F)n3)cc2)C[C@H]1C1CC1(F)F` (stereo partly drawn) [Example 2050] had a negative-log EC50 (pEC50) (class) of 7.00 to 9.30.

Compound `CC(C)(C)CNCC1(C(=O)NS(=O)(=O)c2ccc(Nc3nc(NC4(c5ccc(Cl)cc5)CC4)nc(OCC(F)(F)F)n3)cc2)CC1` [Example 3007] had a negative logarithm of the EC50 (pEC50) of 5.55. The same compound had a pEC50 (class) of 5.30 to 6.00.
